# Laboratory results reported in patent publication EP0136464A2, “Therapeutic compositions for oral use containing stable S-Adenosy1-L-Methionine salts” (BIORESEARCH S.p.A., priority 1983, dated 1985).
# Like-named read-outs stand apart in the source and are kept apart here.
# Experiments:
# [1] = test system: Reaction to heat, tail flick test in the rat; experiment: Reaction to heat, tail flick test in the rat (analgesic activity); assay type: in vivo, male Sprague-Dawley rats
# Protocol: (§1) In the experiments carried out on animals which received the SAMe orally, the drug was dissolved in physiological solution and administered by gastric probe in a volume of 0.5 ml/100 g of body weight. An equal volume of physiological solution was administered to the controls.
# (§2) In the experiments in which SAMe was administered intraduodenally, the animals anesthetised with ether were subjected to laparotomy to allow the insertion into the duodenum of gelatin capsules (size 4) containing the product.
# (§3) After inserting the capsule, the duodenum was sutured carefully so as not to traumatise the tissue and was then returned to its seat, the muscular and cutaneous layers then being re-composed and sutured.
# (§4) The control animals received an empty gelatin capsule by the same procedure.
# 1) Reaction to heat, tail flick test in the rat.
# The analgesic activity of SAMe was evaluated in male Sprague-Dawley rats of about 190 g weight by the method of D'Amour and Smith (J. Pharmacol. Exp. Theor. 71, 74 (1941)).
# The SAMe was administered either orally or in gelatin capsules into the duodenum in doses of 50 and 100 mg/kg.
# Morphine was used as the comparison drug and was administered under the cutis at a dose of 5 mg/kg.
# The analgesic activity was determined 30, 60 and 120 minutes after administration of the drugs.
# The results represent the mean + S.E. for the number of animals indicated in parentheses. The morphine was administered under the cutis to rats which received one empty capsule into the duodenum.
# [2] = test system: Edema induced by carrageen in the rat; experiment: Edema induced by carrageen in the rat (anti-inflammatory activity); assay type: in vivo, Male Sprague-Dawley rats
# Protocol: as §1, §2, §3, §4
# The antiphlogistic and analgesic activity of SAMe were evaluated by the following tests: • A. Anti-inflammatory activity • 1) Edema induced by carrageen in the rat.
# Male Sprague-Dawley rats of about 170 g weight were used, having fasted since the evening preceding the experiment. Edema was induced by carrageen using the method described by Winter et al. (Proc. Soc. Exp. Biol. Med. 111, 544 (1962)).
# The SAMe was administered orally one hour before the carrageen at doses of 25 and 50 mg/kg, and intraduodenally at doses of 25 and 50 mg/kg 80 minutes before the phlogogenic agent. […]
# [3] = SAMe concentration in portal and aortic plasma after intestinal or oral (gastric probe) administration; assay type: in vivo, male Sprague-Dawley rats; details: rat, SAMe-tri-p. toluenesulphonate, reduced by control values; for concentration at 1 h: 60 min; for concentration at 1.5 h: 90 min; for concentration at 2 h: 120 min; for concentration at 3 h: 180 min; for concentration at 4 h: 240 min
# Protocol: The values given relate to tests carried out with SAMe-tri-p. toluenesulphonate, but substantially identical results were obtained with other known SAMe salts.
# The drug concentrations in the portal or aortic plasma were evaluated as the absorption parameters.
# The experiment was carried out on 72 male Sprague-Dawley rats of weight 210-260 g, which had fasted since the previous evening.
# The animals, anesthetised with ether, were operated on in order to insert a capsule into the proximal jejunum. The incision in the intestinal wall was closed by ligature, and the animals were sutured.
# The treatment scheme was as follows: • Intestinal administration: A capsule containing a weighed SAMe quantity corresponding to a dose of 32 mg/kg of body weight was inserted into the intestine, and 5 ml of H20/kg were administered by means of a gastric probe. • Oral administration: An empty capsule was inserted into the intestine, and 32 mg of SAMe/kg in aqueous solution (5 ml/kg) were • administered by means of a gastric probe. Controls: An empty capsule was inserted into the intestine, and 5 ml of H20/kg of body weight were administered by means of a gastric probe.
# After 10, 20, 40, 60, 90, 120, 180 and 240 minutes from administration, 3 animals were sacrificed at a time in order to withdraw portal and aortic blood.
# The SAMe concentrations in the plasma were determined by the Baldessarini and Kopin method (J. Neuroch. 13: 769, 1966).
# The values represent the mean + standard error of 3 observations, reduced by the values found for the controls.
# [4] = aortic plasma, po, 32 mg/kg aqueous solution by gastric probe, read-out: SAMe concentration in the plasma, Oral treatment, Aortic
# [5] = aortic plasma, 32 mg/kg capsule into proximal jejunum, read-out: SAMe concentration in the plasma, Intestinal treatment, Aortic
# [6] = portal plasma, po, 32 mg/kg aqueous solution by gastric probe, read-out: SAMe concentration in the plasma, Oral treatment, Portal
# [7] = portal plasma, 32 mg/kg capsule into proximal jejunum, read-out: SAMe concentration in the plasma, Intestinal treatment, Portal
smiles,measurement,setting,value
"CN1CC[C@]23c4c5ccc(O)c4O[C@H]2[C@@H](O)C=C[C@H]3[C@H]1C5 [Morphine, reference compound]",analgesic activity with respect to the controls,"[1]; in vivo, 5 mg/kg",powerful analgesic activity (P<0.01)
"C[S+](CC[C@H](N)C(=O)[O-])C[C@H]1O[C@@H](n2cnc3c(N)ncnc32)[C@H](O)[C@@H]1O (stereo partly drawn) [SAMe, Sulpho-adenosyl-L-methionine]",edema inhibition,"[2]; intraduodenal administration, 50 mg/kg, 80 minutes before the phlogogenic agent",statistically significant edema inhibition
same,edema development,"[2]; oral administration, 25 and 50 mg/kg, one hour before the carrageen, versus controls",not able to significantly modify the edema development
same,Reaction time in minutes at various times after treatment,"[1]; administered into the duodenum, 50 mg/kg, 30 min",8.5 min
same,Reaction time in minutes at various times after treatment,"[1]; administered into the duodenum, 50 mg/kg, 60 min",8.2 min
same,Reaction time in minutes at various times after treatment,"[1]; administered into the duodenum, 50 mg/kg, 120 min",8.3 min
same,Reaction time in minutes at various times after treatment,"[1]; administered into the duodenum, 50 mg/kg, T0",4.8 min
same,Reaction time in minutes at various times after treatment,"[1]; administered into the duodenum, 100 mg/kg, 30 min",10.2 min
same,Reaction time in minutes at various times after treatment,"[1]; administered into the duodenum, 100 mg/kg, 60 min",9.6 min
same,Reaction time in minutes at various times after treatment,"[1]; administered into the duodenum, 100 mg/kg, 120 min",8.5 min
same,Reaction time in minutes at various times after treatment,"[1]; administered into the duodenum, 100 mg/kg, T0",5.0 min
same,Reaction time in minutes at various times after treatment,"[1]; administered orally, 50 mg/kg, 30 min",5.04 min
same,Reaction time in minutes at various times after treatment,"[1]; administered orally, 50 mg/kg, 60 min",4.09 min
same,Reaction time in minutes at various times after treatment,"[1]; administered orally, 50 mg/kg, 120 min",4.20 min
same,Reaction time in minutes at various times after treatment,"[1]; administered orally, 50 mg/kg, T0",4.60 min
same,Reaction time in minutes at various times after treatment,"[1]; administered orally, 100 mg/kg, 30 min",4.46 min
same,Reaction time in minutes at various times after treatment,"[1]; administered orally, 100 mg/kg, 60 min",4.73 min
same,Reaction time in minutes at various times after treatment,"[1]; administered orally, 100 mg/kg, 120 min",4.25 min
same,Reaction time in minutes at various times after treatment,"[1]; administered orally, 100 mg/kg, T0",4.41 min
same,"reaction times, difference between treated animals and the controls","[1]; intraduodenal administration, 100 mg/kg, 30 minutes after treatment",highly significant difference (P<0.01)
same,reaction time towards heat with respect to the controls,"[1]; oral administration, 50 and 100 mg/kg",not able to modify the reaction time towards heat
same,concentration at 10 min,[3]; [4],1100 ng/mL
same,concentration at 20 min,[3]; [4],780 ng/mL
same,concentration at 40 min,[3]; [4],720 ng/mL
same,concentration at 1 h,[3]; [4],700 ng/mL
same,concentration at 1.5 h,[3]; [4],680 ng/mL
same,concentration at 2 h,[3]; [4],680 ng/mL
same,concentration at 3 h,[3]; [4],660 ng/mL
same,concentration at 4 h,[3]; [4],640 ng/mL
same,concentration at 10 min,[3]; [5],13100 ng/mL
same,concentration at 20 min,[3]; [5],8630 ng/mL
same,concentration at 40 min,[3]; [5],4390 ng/mL
same,concentration at 1 h,[3]; [5],1870 ng/mL
same,concentration at 1.5 h,[3]; [5],1280 ng/mL
same,concentration at 2 h,[3]; [5],880 ng/mL
same,concentration at 3 h,[3]; [5],690 ng/mL
same,concentration at 4 h,[3]; [5],530 ng/mL
same,concentration at 10 min,[3]; [6],2930 ng/mL
same,concentration at 20 min,[3]; [6],870 ng/mL
same,concentration at 40 min,[3]; [6],840 ng/mL
same,concentration at 1 h,[3]; [6],610 ng/mL
same,concentration at 1.5 h,[3]; [6],540 ng/mL
same,concentration at 2 h,[3]; [6],520 ng/mL
same,concentration at 3 h,[3]; [6],520 ng/mL
same,concentration at 4 h,[3]; [6],460 ng/mL
same,concentration at 10 min,[3]; [7],25500 ng/mL
same,concentration at 20 min,[3]; [7],9390 ng/mL
same,concentration at 40 min,[3]; [7],2990 ng/mL
same,concentration at 1 h,[3]; [7],2440 ng/mL
same,concentration at 1.5 h,[3]; [7],1540 ng/mL
same,concentration at 2 h,[3]; [7],770 ng/mL
same,concentration at 3 h,[3]; [7],770 ng/mL
same,concentration at 4 h,[3]; [7],640 ng/mL
